Data: paper PMC9181543, “Lysosomal Exocytosis of Olivacine on the Way to Explain Drug Resistance in Cancer Cells” (International Journal of Molecular Sciences, 2022)

Columns and labels:
MCF-7 cells = experiment: SRB assay (total protein content), MCF-7; assay type: cell-based; conditions: Homo sapiens, MCF7, 48 h incubation
Experimental: (§1) The anticancer activity of tested compounds was assessed on five human cell lines selected from the panel of tumor cell lines recommended by the National Cancer Institute: A495 (lung carcinoma), CCRF/CEM (acute lymphoblastic leukemia), LoVo and LoVo/DX (two types of colorectal: non-resistant and resistant to doxorubicin), and MCF-7 (breast adenocarcinoma). In addition, the NHDF cell line (normal human dermal fibroblasts) was used to estimate cytotoxicity to noncancer cells. The A549, CCRF/CEM, LoVo, LoVo/DX, and MCF-7 cells were obtained from ECACC, and NHDF cells from LONZA, Belgium. The A549 and MCF-7 cells were grown in EMEM medium, CCRF/CEM cells in RPMI-1640, LoVo and LoVo/DX cells in DMEM/F-12, and NHDF cells in DMEM without phenol red. The cells were seeded in […] in the biological assay, as recommended by the National Cancer Institute. All culture media were supplemented with L-glutamine, penicillin, streptomycin, and 10% fetal bovine serum (FBS). Cells were incubated at 37 °C and 5% CO2. One of the most popular in vitro tests to evaluate the activity of compounds with potential antitumor activity is the SRB assay. The sulforhodamine B dye is used, which binds to the protein at the appropriate pH. The assay allows for assessing cell mass and, indirectly, their proliferation. The advantage of the assay is that it measures cellular protein content and not the activity of any enzymes. The SRB assay was carried out according to the National Cancer Institute procedure. Cells were incubated in a culture medium for 24 h in 96-well plates. After 24 h, the control plate for each cell line was fixed with TCA to evaluate cell culture before treatment with tested compounds. […] Cell cultures were then fixed by adding 50% TCA at 4 °C for 1 h. After removing the supernatant, the plates were washed with water and dried. […] Growth inhibition was calculated following the NCI guidelines and expressed as the GI50 ratio, i.e., the concentration of the compound in which the amount of protein was reduced by half compared with the control.

LoVo cells [1] = experiment: SRB assay (total protein content), LoVo; assay type: cell-based; conditions: Homo sapiens, 48 h incubation
Experimental: as §1

A549 cells = experiment: Proton pump blocking test (omeprazole) for lysosomal exocytosis; assay type: cell-based, human; conditions: for intracellular localisation: LysoTracker staining
Experimental: To assess whether the exocytosis of olivacine and ellipticine from cancer cells is lysosomal, a proton pump blocking test was performed. Omeprazole was added into A549 cells at a concentration of 200 µM for 1 h. The cell culture was then washed twice with PBS, and the cells were treated with tested compounds. The cell culture was assessed using an Evos FL microscope. The lysosomes were stained using LysoTracker™ Deep Red kit (L12492; Invitrogen). Cultured cells were evaluated using an Evos FL microscope, taking photos every 15 min. After treatment with olivacine or olivacine and omeprazole, analysis of mean cell fluorescence was performed from five independent replicates. In addition, 14 pictures were taken from each replicate, and 100 cells were analyzed by photomicrography using the ImageJ platform.

LoVo cells [2] = experiment: MTT assay (mitochondrial activity), LoVo; assay type: cell-based; conditions: Homo sapiens
Experimental: The anticancer activity of tested compounds was assessed on five human cell lines selected from the panel of tumor cell lines recommended by the National Cancer Institute: A495 (lung carcinoma), CCRF/CEM (acute lymphoblastic leukemia), LoVo and LoVo/DX (two types of colorectal: non-resistant and resistant to doxorubicin), and MCF-7 (breast adenocarcinoma). In addition, the NHDF cell line (normal human dermal fibroblasts) was used to estimate cytotoxicity to noncancer cells. The A549, CCRF/CEM, LoVo, LoVo/DX, and MCF-7 cells were obtained from ECACC, and NHDF cells from LONZA, Belgium. The A549 and MCF-7 cells were grown in EMEM medium, CCRF/CEM cells in RPMI-1640, LoVo and LoVo/DX cells in DMEM/F-12, and NHDF cells in DMEM without phenol red. The cells were seeded in […] in the biological assay, as recommended by the National Cancer Institute. All culture media were supplemented with L-glutamine, penicillin, streptomycin, and 10% fetal bovine serum (FBS). Cells were incubated at 37 °C and 5% CO2. An assessment of the mitochondrial cell activity after applying tested compounds was carried out using the test MTT assay, recommended in the ISO 10993-5:2009 standard. As in the SRB assay, the cells were exposed to tested compounds after 24 h of initial incubation in 96-well plates. The MTT solution (1 mg/mL) was added to each well, and cells were incubated for 2 h. Finally, the supernatant was removed, and the formazan crystals were dissolved in isopropanol. After 30 min, absorbance at 570 nm in Victor2 microplate reader (PerkinElmer). Cell viability was determined as the IC50 ratio, i.e., the concentration of the compound in which the viability was reduced by half compared with the control.

[3] = test system: A549, MCF-7, LoVo, LoVo/DX, CCRF/CEM, and NHDF cells; experiment: MTT assay, whole cell line panel; assay type: cell-based; conditions: Homo sapiens, range across all cell lines, read-out: IC50 range over the cell lines
Experimental: The anticancer activity of tested compounds was assessed on five human cell lines selected from the panel of tumor cell lines recommended by the National Cancer Institute: A495 (lung carcinoma), CCRF/CEM (acute lymphoblastic leukemia), LoVo and LoVo/DX (two types of colorectal: non-resistant and resistant to doxorubicin), and MCF-7 (breast adenocarcinoma). In addition, the NHDF cell line (normal human dermal fibroblasts) was used to estimate cytotoxicity to noncancer cells. The A549, CCRF/CEM, LoVo, LoVo/DX, and MCF-7 cells were obtained from ECACC, and NHDF cells from LONZA, Belgium. The A549 and MCF-7 cells were grown in EMEM medium, CCRF/CEM cells in RPMI-1640, LoVo and LoVo/DX cells in DMEM/F-12, and NHDF cells in DMEM without phenol red. The cells were seeded in […] in the biological assay, as recommended by the National Cancer Institute. All culture media were supplemented with L-glutamine, penicillin, streptomycin, and 10% fetal bovine serum (FBS). […]
An assessment of the mitochondrial cell activity after applying tested compounds was carried out using the test MTT assay, recommended in the ISO 10993-5:2009 standard. […] After 30 min, absorbance at 570 nm in Victor2 microplate reader (PerkinElmer). Cell viability was determined as the IC50 ratio, i.e., the concentration of the compound in which the viability was reduced by half compared with the control.

CCRF/CEM cells = experiment: SRB assay (total protein content), CCRF/CEM; assay type: cell-based; conditions: Homo sapiens, 48 h incubation
Experimental: as §1

[4] = 1 h pre-incubation with 200 µM omeprazole, compound 10 µM

Question: Which results are given for `Cc1nccc2c(C)c3[nH]c4ccccc4c3cc12` [Olivacine, 1,5-dimethyl-6H-pyrido[4,3-b]carbazole]?
Answer: GI50 (MCF-7 cells): 750 ± 70 nM; GI50 (LoVo cells [1]): 1020 ± 210 nM; duration of blockage of exocytosis after omeprazole (A549 cells; [4]): at least 3 h; intracellular localisation (A549 cells; with omeprazole): in the cytoplasm and not in the lysosomes; intracellular localisation (A549 cells; without omeprazole): accumulation of olivacine in the lysosomes; IC50 (LoVo cells [2]): 12700 ± 1080 nM; IC50 [3]: 12000 to 26000 nM; GI50 (CCRF/CEM cells): 810 ± 140 nM

Question: `Cc1c2ccncc2c(C)c2c1[nH]c1ccccc12` [Ellipticine] was tested. Which GI50 (MCF-7 cells) did it give?
Answer: 1250 ± 770 nM

Question: And the GI50 (LoVo cells [1])?
Answer: 950 ± 250 nM

Question: What about the “time after which exocytosis was observed after omeprazole” value (A549 cells; [4]) of the same compound?
Answer: > 3 h

Question: And the IC50 (LoVo cells [2])?
Answer: 3270 ± 830 nM

Question: And the GI50 (CCRF/CEM cells)?
Answer: 770 ± 170 nM
